Holding throughout (assay type): cell-based
The test system of experiment [1] is neuroblastoma cells. The experiment in a line: Morphology changes / dendrite outgrowth by inverted microscope. As to conditions: 3, 5 and 7 days.
Description: Cells were cultured for 3, 5, and 7 days with the indicated treatments. Images were captured on an inverted microscope.
Experiment [2] relates to Wnt signaling pathway. The experiment in a line: Levels of Wnt-related signaling molecules. Conditions: SK-N-BE2 cells; 3 days in culture. The procedure: The levels of Wnt-related signaling molecules were assessed following treatment (SK-N-BE2 cells; 3 days in culture) with DMSO (control), Compound B alone, ATRA alone, and Compound B in combination with ATRA. b-catenin, the key signaling molecule in the Wnt pathway, is decreased by the Compound B and ATRA combination. Activated p-LRP is decreased after Compound B single agent treatment. Disheveled (Dvl) 2 & 3 is reduced by Compound B and ATRA combination treatment. Naked2 is increased by Compound B as a single agent and in combination with ATRA. Axin1 is decreased by Compound B as a single agent and in combination with ATRA.

The subject of experiment [3] is NF-M. The experiment is described as follows: NF-M staining by fluorescent microscopy. Conditions: 7 days on glass slides. On the procedure: Cells were cultured for 7 days with the indicated treatments on glass slides. Cells were fixed and stained with antibodies for NF-M and nucleus. Images were captured on a fluorescent microscope.
For experiment [4], the system named is neuroblastoma cells. The experiment in a line: Histone acetylation in neuroblastoma cells by western blot. Conditions: western blot at 24 hours. In general terms: Immunoblotting shows a protein as a band on a membrane.
The test system of experiment [5] is AKT and c-RAF. The experiment is described as follows: Levels of AKT and c-RAF. Conditions: SK-N-BE2 cells; 3 days in culture. The procedure: The levels of AKT and c-RAF were assessed following treatment (SK-N-BE2 cells; 3 days in culture) with DMSO (control), Compound B alone, ATRA alone, and Compound B in combination with ATRA. Activated AKT is increased by ATRA and reduced in the combination setting with Compound B. Compound B as a single agent, and in combination with ATRA, decreases cRAF phosphorylation at residue Ser259.

The subject of experiment [6] is SK-N-BE(2) cells. The experiment in a line: Caspase activity (Promega Caspase3/7 Glo assay). The procedure:
Cells were cultured for 48 hours at the indicated concentration of drug, and then cell viability was measured by Promega CellTiter Glo assay and caspase activity was measured by Promega Caspase3/7 Glo assay. […] Anti-tumor activity is evident at 3 μM of treatment.

The subject of experiment [7] is neuroblastoma cells. The experiment in a line: Cell cycle analysis (Click-iT EdU and FxCycle PI/RNase staining). As to conditions: 7 days, with ATRA. On the procedure: Cells were cultured for 7 days with the indicated treatments and then stained with the Invitrogen Click-iT EdU kit and the Invitrogen FxCycle […] kits to assess frequency of cells in each stage of the cell cycle. […] The effect is enhanced by Compound B in a dose dependent manner.
In combination with ATRA, the effect on p21 is enhanced at concentrations that induce gene expression changes consistent with differentiation. At 7 days of treatment, combination effects are observed on the cell cycle, with a decreasing frequency of s-phase cells and an increasing sub-G1 population (FIG. 6B). […] EDU is increased in cells in s-phase while PI intensity indicates relative levels of DNA. Using these metrics, we illustrate the frequency of cells in the indicated states of the cell cycle.

Experiment [8] has as its system neuroblastoma cells. The experiment in a line: Neuroblastoma proliferation, manual cell counts over 7 days. As to conditions: 1 μM and 3 μM, counted at days 3, 5 and 7. The procedure: Cells were cultured over a 7 day period and manually counted at days 3, 5, and 7.

This note sets out measurements from patent US20160339022A1, “TREATMENT OF NEUROBLASTOMA WITH HISTONE DEACETYLASE INHIBITORS” (Acetylon Pharmaceuticals Inc., priority 2015, published 2016).

On to `Nc1ccc(-c2cccs2)cc1NC(=O)c1ccc2c(c1)cc(C1CC1)n2CCN1CCOCC1` [Compound B, N-(2-amino-5-(thiophen-2-yl)phenyl)-2-cyclopropyl-1-(2-morpholinoethyl)-1H-indole-5-carboxamide], for which the “morphology / dendrite outgrowth” value in experiment [1] is listed as “does not alter morphology”. Besides, in experiment [2], the Axin1 level entry was “decreased”, the Naked2 level entry is given as “increased” and the “activated p-LRP level” value is on record as “decreased”. Also, in experiment [3], the NF-M staining result is given as “general increase in NF-M staining”. Besides, the histone acetylation entry in experiment [4] is listed as “induces histone acetylation”. Also, in experiment [5], the “cRAF phosphorylation at residue Ser259” value is “decreases”. In experiment [6] (1 μM, 48 hours), the “caspase 3/7 induction” value is on record as “Minimal”. Moreover, in experiment [6] (FIG. 2B, independent of ATRA), the “concentrations at which Caspase 3/7 activity is increased” value is no less than 2 µM. The “effect on ATRA-mediated s-phase reduction and sub-G1 increase” value in experiment [7] is “enhanced”. For the same compound, the “proliferation, single agent” value in experiment [8] is recorded as “can suppress proliferation similar to ATRA”.
